# Like-named read-outs stand apart in the source and are kept apart here.
# Assays:
# calcium current = assay: Voltage clamp: calcium current in rat ventricular cells; type: cell-based
# Text: (§1) In rat ventricular cells, the effects of dicentrine on action potential and membrane current were studied. […] However, calcium current was less affected.
# aorta = assay: Aortic contraction induced by U-46619, angiotensin II, high potassium or carbachol; type: cell-based, rat
# [1] = system: conscious spontaneously hypertensive (SH) rats; assay: Mean arterial pressure in conscious spontaneously hypertensive (SH) rats; type: in vivo, rat
# [2] = system: pentobarbital-anesthetized rats; assay: Systemic hemodynamic parameters of anesthetized rats; type: in vivo, rat
# rat ventricular cells = assay: Action potential in rat ventricular cells; type: cell-based; settings: for AP amplitude / APD50 (action potential duration measured at 50% repolarization from the peak amplitude) / Tp (time to peak measured from the start of depolarization to the peak of the action potential): 3 μM, Ca^++ -Tyrode, 3 to 5 min exposure, means ± S.E.M.
# Text: as §1
# The effects of dicentrine and quinidine on action potential were compared and studied in rat ventricular cells. […] In addition to the prolongation of APD50, a depression of initial upstroke amplitude from 138.3±2.6 mV to 125.5±4.5 mV and prolongation of the time to peak amplitude from 5.0±0.5 msec to 10.0±1.9 msec were observed.
# isolated thoracic aorta = assay: Contractile force of isolated thoracic aorta of rats fed with high cholesterol and high fat diet; type: in vivo, rat
# α1 -adrenoceptor = molecular target: T1, α1 -adrenoceptor (Rattus norvegicus, UniProt P23944); assay: α1-adrenoceptor antagonism, concentration-response (Schild) analysis of norepinephrine- and phenylephrine-induced contraction of rat thoracic aortae; type: cell-based; settings: for Kb: means ± S.E.M.
# T1 construct: contraction of rat thoracic aortae; from tissue; host or cells: rat thoracic aorta
# T1 sequence (P23944 1-561): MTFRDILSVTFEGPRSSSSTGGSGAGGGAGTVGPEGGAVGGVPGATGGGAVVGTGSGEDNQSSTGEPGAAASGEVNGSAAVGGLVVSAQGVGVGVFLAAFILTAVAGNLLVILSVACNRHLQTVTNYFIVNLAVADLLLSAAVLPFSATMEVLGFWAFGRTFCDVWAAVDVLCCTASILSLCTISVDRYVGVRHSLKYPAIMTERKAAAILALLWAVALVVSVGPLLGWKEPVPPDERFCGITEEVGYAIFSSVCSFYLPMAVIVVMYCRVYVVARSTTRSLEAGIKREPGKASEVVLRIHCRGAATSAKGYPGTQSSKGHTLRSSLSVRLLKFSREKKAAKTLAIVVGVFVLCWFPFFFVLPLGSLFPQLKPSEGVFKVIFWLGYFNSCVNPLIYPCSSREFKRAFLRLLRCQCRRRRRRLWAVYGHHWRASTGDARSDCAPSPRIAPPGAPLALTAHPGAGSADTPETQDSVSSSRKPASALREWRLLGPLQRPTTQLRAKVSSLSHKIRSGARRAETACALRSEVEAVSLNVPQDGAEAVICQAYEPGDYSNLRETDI
# guinea-pig trachea = assay: Contraction and relaxation of guinea-pig trachea; type: cell-based
# [3] = system: transient outward and steady state outward current; assay: Voltage clamp: transient outward and steady state outward current in rat ventricular cells; type: cell-based
# Text: as §1
# [4] = system: fast sodium inward current; assay: Fast sodium inward current in rat ventricular cells; type: cell-based
# Text: as §1
# rat thoracic aorta = assay: Norepinephrine-induced contraction of thoracic aorta; type: cell-based
# Text: They inhibited the aggregation of washed rabbit platelets induced by ADP, collagen, arachidonic acid and platelet-activating factor (PAF). […] Furthermore, the action potential of rat ventricular cells was prolonged by these fractions. After rechromatograph on a silica gel column with n-hexane-ethylacetate (2:1), four potent compounds, dicentrine, N-methylnandigerine, N-methylovigenine and dicentrinone were obtained.
# The dried, ground root material (500 g) was extracted with 95% ethanol, and the extract was concentrated in vacua and fractionated into ethanol- and ethylacetate-soluble fractions. The ethylacetate-soluble fraction was then applied to a column of silica gel and eight fractions were obtained.
# Concentration: arachidonic acid (100 μM), collagen (10 μg/ml),
# norepinephrine (NE, 3 μM), each fraction (100 μg/ml).
# serum triglyceride = assay: Serum triglyceride level in rats fed with cholesterol-triglyceride-rich diet; type: in vivo, rat
# normotensive (NT) rats = assay: Mean arterial pressure in conscious normotensive (NT) rats; type: in vivo, rat
# [5] = pentobarbital-anesthetized rats
# [6] = concentration-response curve analysis
structure (smiles),measurement,setting,value
"COc1cc2c(cc1OC)-c1c3c(cc4c1[C@H](C2)N(C)CC4)OCO3 [Dicentrine, dicentrine]",calcium current (in words),calcium current,less affected
same,"aortic contraction induced by U-46619, angiotensin II, high potassium or carbachol (in words)",aorta,did not affect
same,mean arterial pressure (in words),[1]; compared with NT rats,dose-related decreases in mean arterial pressure which were of greater magnitude in SH than in NT rats
same,persistence of hypotensive effect,[1]; oral administration,over 15 hr
same,hypotensive activity after α1 -adrenoceptor blockade (in words),[2]; after α1 -adrenoceptor blockade,completely abolished
same,mean arterial blood pressure (in words),"[2]; anesthetized rats, i.v. bolus 0.1-1.0 mg/kg",dose-related reduction in mean arterial blood pressure
same,persistence of reduction in mean arterial blood pressure,"[2]; anesthetized rats, i.v. bolus 0.1-1.0 mg/kg, throughout observation period",≥ 2 h
same,cardiac output (in words),[2]; [5],little or no change in cardiac output (CO)
same,mean arterial pressure (in words),[2]; [5],a decrease in mean arterial pressure (MAP)
same,total peripheral resistance (in words),[2]; [5],a reduction in total peripheral resistance by increasing blood flow
same,"heart rate, stroke volume (in words)","[2]; pentobarbital-anesthetized rats, in comparison with prazosin","no change in heart rate (HR), or stroke volume (SV)"
same,AP amplitude,rat ventricular cells,125.5 ± 4.5 mV
same,APD50 (action potential duration measured at 50% repolarization from the peak amplitude),rat ventricular cells,201.9 ± 28.7 ms
same,Tp (time to peak measured from the start of depolarization to the peak of the action potential),rat ventricular cells,10.0 ± 1.9 ms
same,AP amplitude,rat ventricular cells; listed as dicentrine,125.5±4.5 mV
same,APD50 (action potential duration measured at 50% repolarization from the peak amplitude),rat ventricular cells; listed as dicentrine,201.9 ± 28.7 ms
same,Tp (time to peak measured from the start of depolarization to the peak of the action potential),rat ventricular cells; listed as dicentrine,10.0 ± 1.9 ms
same,action potential duration (in words),rat ventricular cells; stimulation frequency 0.1 Hz,prolonged the action potential
same,initial upstroke amplitude (in words),rat ventricular cells; stimulation frequency 0.1 Hz,reduced the initial upstroke amplitude
same,time to peak (in words),rat ventricular cells; stimulation frequency 0.1 Hz,increased the time to peak
same,contractile force of cholesterol-triglyceride-treated rat aorta (in words),isolated thoracic aorta; cholesterol-triglyceride-rich diet,restored the contractile force of cholesterol-triglyceride-treated rat aorta back to normal values
same,maximal contractile force of isolated thoracic aorta (in words),"isolated thoracic aorta; high cholesterol and high fat diet three weeks, dicentrine 10 mg/kg oral twice a day in the last week, prazosin 5 mg/kg",restored to normal range
same,r,α1 -adrenoceptor; agonist norepinephrine,0.99
same,Kb,"α1 -adrenoceptor; agonist norepinephrine, read-out: pA2 (converted)",6.46 nM
same,r,α1 -adrenoceptor; agonist phenylephrine,0.99
same,potency compared with phentolamine or yohimbine (in words),α1 -adrenoceptor; [6],much more potent than phentolamine or yohimbine
same,potency compared with prazosin (in words),α1 -adrenoceptor; [6],less potent than prazosin
same,antagonism in denuded aorta (in words),α1 -adrenoceptor; denuded aorta,These effects still persisted in denuded aorta
same,Kb,"α1 -adrenoceptor; pA2, agonist phenylephrine",0.977 nM
same,antagonism of norepinephrine- or phenylephrine-induced vasoconstriction (in words),α1 -adrenoceptor; rat aorta,competitive antagonism
same,contraction of guinea-pig trachea caused by histamine or carbachol (in words),guinea-pig trachea; histamine or carbachol,slightly inhibited
same,B-adrenoceptor relaxation to isoprenaline in trachea (in words),guinea-pig trachea; isoprenaline,not affected
same,transient outward and steady state outward current (in words),[3],significant inhibition of both transient outward and steady state outward current
same,fast sodium inward current (in words),[4],inhibition of fast sodium inward current
same,vasorelaxant potency (in words),rat thoracic aorta,the most potent vasorelaxant in rat thoracic aorta
same,serum triglyceride level (in words),serum triglyceride,decreased the serum triglyceride level
same,mean arterial pressure (in words),normotensive (NT) rats,dose-related decreases in mean arterial pressure
"Cc1ccc(N(CC2=NCCN2)c2cccc(O)c2)cc1 [Phentolamine, phentolamine, reference compound]",slope,"α1 -adrenoceptor; Schild slope, agonist phenylephrine, 95% confidence limits in parentheses",0.72 (0.70-1.20)
same,r,α1 -adrenoceptor; agonist phenylephrine,0.99
"COc1cc2nc(N3CCN(C(=O)c4ccco4)CC3)nc(N)c2cc1OC [Prazosin, prazosin, reference compound]",cardiac output (in words),[2]; [5],little or no change in cardiac output (CO)
same,mean arterial pressure (in words),[2]; [5],a decrease in mean arterial pressure (MAP)
same,total peripheral resistance (in words),[2]; [5],a reduction in total peripheral resistance by increasing blood flow
same,r,α1 -adrenoceptor; agonist phenylephrine,0.99
"C=C[C@H]1C[N@@]2CC[C@H]1C[C@@H]2[C@@H](O)c1ccnc2ccc(OC)cc12 [Quinidine, quinidine, reference compound]",AP amplitude,rat ventricular cells,121.2 ± 2.3 mV
same,APD50 (action potential duration measured at 50% repolarization from the peak amplitude),rat ventricular cells,276.0 ± 18.6 ms
same,Tp (time to peak measured from the start of depolarization to the peak of the action potential),rat ventricular cells,10.8 ± 2.4 ms
"COC(=O)[C@@H]1[C@H]2C[C@H]3c4[nH]c5ccccc5c4CCN3C[C@@H]2CC[C@@H]1O [Yohimbine, yohimbine, reference compound]",r,α1 -adrenoceptor; agonist phenylephrine,0.99
same,Kb,"α1 -adrenoceptor; pA2, agonist phenylephrine",631 nM

# From patent publication US5270321A, “Use of dicentrine and its derivatives for the treatment of arrhythmia” (priority 1992, dated 1993)
